Source: patent publication US10457654B2 (GENENTECH, INC., priority 2017, dated 2019)
Structures can show the parent of a compound that is named as a salt. Where two headings read alike, the source gives them in different places.

Biological target: hNav1.7 (Homo sapiens (Human), UniProt Q15858)
Assay: Tritiated compound binding to membranes from cells expressing hNav1.7 and the β1 subunit, competitive binding (LBA, Ex. 243A)
Conditions: 100 pM [3H]compound, 18 h, room temperature
Experimental: Tritiated Compound Binding to Membranes Isolated from Cells that Heterologously Express hNav1.7 and the β1 Subunit
Preparation of membranes containing recombinantly expressed sodium channels: Frozen recombinant cell pellets were thawed on ice and diluted to 4 times the cell pellet weight with ice cold 50 mM Tris HCl, pH 7.4 buffer. The cell suspensions were homogenized on ice using a motorized glass dounce homogeniser. Homogenates were further diluted 8.4 times with ice cold 50 mM Tris HCl, pH 7.4 buffer and then centrifuged at 200×g at 4° C. for 15 min. The supernatants were collected and centrifuged at 10000×g at 4° C. for 50 min. […] The homogenized membranes were then processed through a syringe equipped with a 26 gauge needle. Protein concentrations were determined by Bradford Assay and the membranes were stored at −80° C.
Radioligand Binding Studies: Saturation experiments. A competitive NaV1.7 inhibitor having a methyl group was tritiated. Three tritiums were incorporated in place of methyl hydrogens to generate [^3H]compound. Binding of this radioligand was performed in 5 mL borosilicate glass test tubes at room temperature. […] Non-specific binding was determined in the presence of 1 μM unlabeled compound. After 18h, the reactants were filtered through GF/C glass fiber filters presoaked in 0.5% w/v polyethylene imine. […] [^3H]compound bound to filters was quantified by liquid scintillation counting.
Competitive binding experiments: Binding reactions were performed in 96-well polypropylene plates at room temperature for 18h. In 360 μL, membranes were incubated with 100 pM [^3H]compound and increasing concentrations of Test Compound. Non-specific binding was defined in the presence of 1 μM unlabeled compound. Reactions were transferred and filtered through 96-well glass fiber/C filter plates presoaked with 0.5% polyethylene imine. The filtered reactions were washed 5 times with 200 μL ice cold buffer containing 0.25% BSA. Bound radioactivity was determined by liquid scintillation counting.
Data Analysis: For saturation experiments, non-specific binding was subtracted from total binding to provide specific binding and these values were recalculated in terms of pmol ligand bound per mg protein. Saturation curves were constructed and dissociation constants were calculated using the single site ligand binding model: Beq=(Bmax*X)/(X+Kd), where Beq is the amount of ligand bound at equilibrium, Bmax is the maximum receptor density, Kd is the dissociation constant for the ligand, and X is the free ligand concentration. For competition studies percent inhibition was determined and IC50 values were calculated using a 4 parameter logistic model (% inhibition=(A+((B−A)/(1+((x/C)^D)))) using XLfit, where A and B are the maximal and minimum inhibition respectively, C is the IC50 concentration and D is the (Hill) slope.

[1] = read-out: Nav1.7 LBA (Ex. 243A) IC50
[2] = read-out: Nav1.7 (LBA) (Ex. 243A)

Chain of hNav1.7 (Q15858 whole entry, looked up): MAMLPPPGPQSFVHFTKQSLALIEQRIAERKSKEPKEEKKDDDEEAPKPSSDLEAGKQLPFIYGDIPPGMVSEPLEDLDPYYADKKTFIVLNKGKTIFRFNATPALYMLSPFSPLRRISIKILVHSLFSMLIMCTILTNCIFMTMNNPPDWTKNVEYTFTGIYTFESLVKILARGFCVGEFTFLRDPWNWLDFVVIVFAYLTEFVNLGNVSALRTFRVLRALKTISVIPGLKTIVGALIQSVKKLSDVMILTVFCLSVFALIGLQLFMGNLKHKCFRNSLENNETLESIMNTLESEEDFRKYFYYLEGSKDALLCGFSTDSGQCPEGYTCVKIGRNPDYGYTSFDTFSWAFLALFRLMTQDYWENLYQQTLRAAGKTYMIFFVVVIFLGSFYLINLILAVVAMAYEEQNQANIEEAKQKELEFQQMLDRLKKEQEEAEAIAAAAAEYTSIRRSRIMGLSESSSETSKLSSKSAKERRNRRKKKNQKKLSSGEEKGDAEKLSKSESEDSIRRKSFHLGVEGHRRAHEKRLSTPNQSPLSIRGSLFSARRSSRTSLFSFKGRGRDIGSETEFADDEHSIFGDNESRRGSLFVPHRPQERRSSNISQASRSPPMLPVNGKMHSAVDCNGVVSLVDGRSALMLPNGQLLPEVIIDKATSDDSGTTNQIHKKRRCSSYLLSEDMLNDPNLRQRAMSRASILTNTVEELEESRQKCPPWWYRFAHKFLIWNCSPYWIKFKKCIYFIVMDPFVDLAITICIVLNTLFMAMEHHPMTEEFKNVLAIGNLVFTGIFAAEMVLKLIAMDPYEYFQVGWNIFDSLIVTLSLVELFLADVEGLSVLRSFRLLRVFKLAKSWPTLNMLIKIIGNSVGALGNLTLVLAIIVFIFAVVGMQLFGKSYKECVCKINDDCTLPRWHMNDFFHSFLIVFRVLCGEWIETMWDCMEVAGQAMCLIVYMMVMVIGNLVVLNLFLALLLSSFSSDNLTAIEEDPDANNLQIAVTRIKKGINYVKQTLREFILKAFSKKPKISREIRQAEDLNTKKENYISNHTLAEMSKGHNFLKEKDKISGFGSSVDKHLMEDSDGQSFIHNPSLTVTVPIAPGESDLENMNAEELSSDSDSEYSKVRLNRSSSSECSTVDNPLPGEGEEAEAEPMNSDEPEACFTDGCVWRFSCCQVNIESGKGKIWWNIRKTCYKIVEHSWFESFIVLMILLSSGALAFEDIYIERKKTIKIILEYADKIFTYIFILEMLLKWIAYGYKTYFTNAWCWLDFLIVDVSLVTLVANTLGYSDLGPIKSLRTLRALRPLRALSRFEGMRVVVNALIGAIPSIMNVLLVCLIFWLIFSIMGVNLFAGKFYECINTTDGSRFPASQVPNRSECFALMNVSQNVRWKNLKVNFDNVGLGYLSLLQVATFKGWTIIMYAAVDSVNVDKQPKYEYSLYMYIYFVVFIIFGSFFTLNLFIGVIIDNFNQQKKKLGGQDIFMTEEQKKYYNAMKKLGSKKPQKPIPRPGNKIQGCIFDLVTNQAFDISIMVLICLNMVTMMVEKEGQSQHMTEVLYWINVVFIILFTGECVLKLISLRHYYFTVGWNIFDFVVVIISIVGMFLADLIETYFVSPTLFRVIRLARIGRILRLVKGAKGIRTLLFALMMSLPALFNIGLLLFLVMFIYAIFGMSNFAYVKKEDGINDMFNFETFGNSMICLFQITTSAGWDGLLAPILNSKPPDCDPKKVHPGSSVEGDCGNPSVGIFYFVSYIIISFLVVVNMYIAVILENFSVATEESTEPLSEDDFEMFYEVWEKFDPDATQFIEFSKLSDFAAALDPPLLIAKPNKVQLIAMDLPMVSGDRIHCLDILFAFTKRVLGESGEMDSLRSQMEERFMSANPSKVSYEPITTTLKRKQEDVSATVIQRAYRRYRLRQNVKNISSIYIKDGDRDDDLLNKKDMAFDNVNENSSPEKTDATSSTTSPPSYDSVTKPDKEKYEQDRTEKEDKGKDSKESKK
Chain of hNav1.7 (Q07699 whole entry partner, looked up): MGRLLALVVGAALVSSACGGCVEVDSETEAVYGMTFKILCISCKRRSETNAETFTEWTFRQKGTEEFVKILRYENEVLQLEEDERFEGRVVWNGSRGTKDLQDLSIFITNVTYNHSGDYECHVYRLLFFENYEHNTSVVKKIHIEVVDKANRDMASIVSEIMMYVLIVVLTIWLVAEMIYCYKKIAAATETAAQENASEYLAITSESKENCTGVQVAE

Row | Compound | IC50 [1] | IC50 [2]
1 | CN(C)[C@H]1CCCC[C@@H]1Nc1cc(F)c(S(=O)(=O)Nc2ccncn2)cc1C1CC1 [Example 69, 5-cyclopropyl-4-(((1S,2S)-2-(dimethylamino)cyclohexyl)amino)-2-fluoro-N-(pyrimidin-4-yl)benzenesulfonamide formate] | 296 nM | 
2 | CN(C)[C@@H]1CC[C@H](C(F)(F)F)C[C@H]1Nc1cc(F)c(S(=O)(=O)Nc2nccs2)cc1Cl [Example 84, 5-chloro-4-(((1R,2R,5S)-2-(dimethylamino)-5-(trifluoromethyl)cyclohexyl)amino)-2-fluoro-N-(thiazol-2-yl)benzenesulfonamide] | 3000 nM | 
3 | CN(C)[C@H]1CC[C@H](C(F)(F)F)C[C@@H]1Nc1cc(F)c(S(=O)(=O)Nc2nccs2)cc1Cl [Example 75, 5-chloro-4-(((1S,2S,5S)-2-(dimethylamino)-5-(trifluoromethyl)cyclohexyl)amino)-2-fluoro-N-(thiazol-2-yl)benzenesulfonamide] | 37.9 nM | 
4 | O=S(=O)(Nc1nccs1)c1cc(Cl)c(N[C@H]2CCCC[C@@H]2N2CCC2)cc1F [Example 21, 4-(((1S,2S)-2-(azetidin-1-yl)cyclohexyl)amino)-5-chloro-2-fluoro-N-(thiazol-2-yl)benzenesulfonamide] |  | 214 nM
5 | CCN[C@H]1CCCC[C@@H]1Oc1cc(F)c(S(=O)(=O)Nc2nccs2)cc1Cl [Example 42, 5-chloro-4-(((1S,2S)-2-(ethylamino)cyclohexyl)oxy)-2-fluoro-N-(thiazol-2-yl)benzenesulfonamide] | 27.2 nM | 
6 | CN(C1COC1)[C@H]1CCCC[C@@H]1Nc1cc(F)c(S(=O)(=O)Nc2nccs2)cc1Cl [Example 97, 5-chloro-2-fluoro-4-(((1S,2S)-2-(methyl(oxetan-3-yl)amino)cyclohexyl)amino)-N-(thiazol-2-yl)benzenesulfonamide] | 36.4 nM | 
7 | Cc1csc(NS(=O)(=O)c2cc(Cl)c(N[C@H]3CCCC[C@@H]3N(C)C)cc2F)n1 [Example 27, 5-chloro-4-(((1 S,2S)-2-(dimethylamino)cyclohexyl)amino)-2-fluoro-N-(4-methylthiazol-2-yl)benzenesulfonamide formate] |  | 149 nM
8 | O=S(=O)(Nc1nccs1)c1cc(Cl)c(N[C@H]2CCCC[C@@H]2N2CCOCC2)cc1F [Example 101, 5-chloro-2-fluoro-4-(((1S,2S)-2-morpholinocyclohexyl)amino)-N-(thiazol-2-yl)benzenesulfonamide] | 25.5 nM | 
9 | CC(O)CN(C)[C@H]1CCCC[C@@H]1Nc1cc(F)c(S(=O)(=O)Nc2nccs2)cc1Cl (stereo partly drawn) [Example 45, 5-chloro-2-fluoro-4-(((1 S,2S)-2-((2-hydroxypropyl)(methyl)amino)cyclohexyl)amino)-N-(thiazol-2-yl)benzenesulfonamide] | 12.7 nM | 
10 | Cc1cnc(NS(=O)(=O)c2cc(Cl)c(N[C@H]3CCCC[C@@H]3N(C)C)cc2F)s1 [Example 40, 5-chloro-4-(((1S,2S)-2-(dimethylamino)cyclohexyl)amino)-2-fluoro-N-(5-methylthiazol-2-yl)benzenesulfonamide formate] | 880 nM | 
11 | CN(C)[C@@H]1C[C@H](C(F)(F)F)CC[C@H]1Nc1cc(F)c(S(=O)(=O)Nc2nccs2)cc1Cl [Example 36, 5-chloro-4-(((1R,2R,4R)-2-(dimethylamino)-4-(trifluoromethyl)cyclohexyl)amino)-2-fluoro-N-(thiazol-2-yl)benzenesulfonamide] | 93.6 nM | 
12 | CN(C)[C@H]1CC[C@H](c2cccc(C(F)(F)F)c2)C[C@@H]1Nc1cc(F)c(S(=O)(=O)Nc2nccs2)cc1Cl [Example 87, 5-chloro-4-(((1S,2S,5S)-2-(dimethylamino)-5-(3-(trifluoromethyl)phenyl)cyclohexyl)amino)-2-fluoro-N-(thiazol-2-yl)benzenesulfonamide] | 0.539 nM | 
13 | O=S(=O)(Nc1nccs1)c1cc(Cl)c(N[C@H]2CCCC[C@@H]2N2CCCCC2)cc1F [Example 70, 5-chloro-2-fluoro-4-(((1S,2S)-2-(piperidin-1-yl)cyclohexyl)amino)-N-(thiazol-2-yl)benzenesulfonamide formate] | 3.46 nM | 
14 | CC(O)CN(C)[C@H]1CCCC[C@@H]1Nc1cc(F)c(S(=O)(=O)Nc2cccc(F)n2)cc1Cl (stereo partly drawn) [Example 86, 5-chloro-2-fluoro-N-(6-fluoropyridin-2-yl)-4-(((1S,2S)-2-((2-hydroxypropyl)(methyl)amino)cyclohexyl)amino)benzenesulfonamide] | 38.1 nM | 
15 | CNCCN(C)[C@H]1CCCC[C@@H]1Nc1cc(F)c(S(=O)(=O)Nc2nccs2)cc1Cl [Example 58, 5-chloro-2-fluoro-4-(((1S,2S)-2-(methyl(2-(methylamino)ethyl)amino)cyclohexyl)amino)-N-(thiazol-2-yl)benzenesulfonamide formate] | 3.42 nM | 
16 | O=S(=O)(Nc1nccs1)c1cc(Cl)c(N[C@H]2CCCC[C@@H]2N2CCC(F)C2)cc1F (stereo partly drawn) [Example 104, 5-chloro-2-fluoro-4-(((1S,2S)-2-(3-fluoropyrrolidin-1-yl)cyclohexyl)amino)-N-(thiazol-2-yl)benzenesulfonamide] | 35.6 nM | 
17 | CCN[C@H]1CCCC[C@@H]1Nc1cc(F)c(S(=O)(=O)Nc2cccc(F)n2)cc1Cl [Example 73, 5-chloro-4-(((1S,2S)-2-(ethylamino)cyclohexyl)amino)-2-fluoro-N-(6-fluoropyridin-2-yl)benzenesulfonamide] | 19.7 nM | 
18 | CN(C)[C@H]1CC(C(F)(F)F)=CC[C@@H]1Nc1cc(F)c(S(=O)(=O)Nc2nccs2)cc1Cl [Example 23] |  | 8.4 nM
19 | CN(C)[C@H]1CCCC[C@@H]1Nc1cc(F)c(S(=O)(=O)Nc2nccs2)cc1Br [Example 14, 5-bromo-4-[[(1S,2S)-2-(dimethylamino)cyclohexyl]amino]-2-fluoro-N-thiazol-2-yl-benzenesulfonamide] |  | 21.9 nM
20 | CN(C1CC1)[C@H]1CCCC[C@@H]1Nc1cc(F)c(S(=O)(=O)Nc2nccs2)cc1Cl [Example 19, 5-chloro-4-[[(1S,2S)-2-[cyclopropyl(methyl)amino]cyclohexyl]amino]-2-fluoro-N-thiazol-2-yl-benzenesulfonamide] |  | 45.1 nM
21 | CN(CCO)[C@H]1CCCC[C@@H]1Nc1cc(F)c(S(=O)(=O)Nc2cccc(F)n2)cc1Cl [Example 72, 5-chloro-2-fluoro-N-(6-fluoropyridin-2-yl)-4-(((1S,2S)-2-((2-hydroxyethyl)(methyl)amino)cyclohexyl)amino)benzenesulfonamide] | 14.8 nM | 
22 | CN(CCO)[C@H]1CCCC[C@@H]1Nc1cc(F)c(S(=O)(=O)Nc2nccs2)cc1C1CC1 [Example 56, 5-cyclopropyl-2-fluoro-4-(((1S,2S)-2-((2-hydroxyethyl)(methyl)amino)cyclohexyl)amino)-N-(thiazol-2-yl)benzenesulfonamide hydrochloride] | 3.46 nM | 
23 | CN(C)[C@H]1CCCC[C@@H]1N1CCOc2cc(S(=O)(=O)Nc3nccs3)ccc21 [Example 54, 4-((1 S,2S)-2-(dimethylamino)cyclohexyl)-N-(thiazol-2-yl)-3,4-dihydro-2H-benzo[b][1,4]oxazine-7-sulfonamide] | 97.9 nM | 
24 | O=S(=O)(Nc1cccc(F)n1)c1cc(Cl)c(N[C@H]2CCCC[C@@H]2N2CCCC2)cc1F [Example 99, 5-chloro-2-fluoro-N-(6-fluoropyridin-2-yl)-4-(((1S,2S)-2-(pyrrolidin-1-yl)cyclohexyl)amino)benzenesulfonamide] | 65.5 nM | 
25 | CN(C)[C@@H]1CCC[C@H]1Oc1cc(F)c(S(=O)(=O)Nc2nccs2)cc1Cl [Example 10, 5-chloro-4-(((1R,2R)-2-(dimethylamino)cyclopentyl)oxy)-2-fluoro-N-(thiazol-2-yl)benzenesulfonamide] |  | 553 nM
26 | CN(C)[C@H]1CCCC[C@@H]1Nc1cc(F)c(S(=O)(=O)Nc2ncc(Cl)s2)cc1Cl [Example 26, 5-chloro-N-(5-chlorothiazol-2-yl)-4-(((1 S,2S)-2-(dimethylamino)cyclohexyl)amino)-2-fluorobenzenesulfonamide] |  | 41.5 nM
27 | O=S(=O)(Nc1nccs1)c1cc(Cl)c(N[C@H]2CCCC[C@@H]2N2CC(O)C2)cc1F [Example 47, 5-chloro-2-fluoro-4-(((1 S,2S)-2-(3-hydroxyazetidin-1-yl)cyclohexyl)amino)-N-(thiazol-2-yl)benzenesulfonamide] | 529 nM | 
28 | CN(C1CNC1)[C@H]1CCCC[C@@H]1Nc1cc(F)c(S(=O)(=O)Nc2cccc(F)n2)cc1Cl [Example 55, 4-(((1S,2S)-2-(azetidin-3-yl(methyl)amino)cyclohexyl)amino)-5-chloro-2-fluoro-N-(6-fluoropyridin-2-yl)benzenesulfonamide] | 7.38 nM | 
